We go through 32 molecules from patent EP1724268A1, “COMPOUND HAVING TGF-BETA INHIBITORY ACTIVITY AND PHARMACEUTICAL COMPOSITION CONTAINING SAME” (KIRIN BEER KABUSHIKI KAISHA, priority 2004, dated 2005).

Each structure is given as a SMILES string.

This test has as its system TGFβ signal. Put plainly: TGFβ signal inhibitory activity, (SBE)4-Luc reporter in A549 cells (Test Examples 1A and 1B). Type of test: cell-based, human. Particulars: Homo sapiens, A549, TGFβ-1 2 ng/ml, 4 hr, Table 1A, read-out: TGFβ inhibition rate, %; for inhibition at 3 µM: test compound 3 µM; for inhibition at 10 µM: test compound 10 µM; for inhibition at 1 µM: test compound 1 µM. Here is the method: Test Example 1A: TGFβ signal inhibitory activity (in vitro test) The compounds according to the present invention was evaluated for TGFβ signal inhibitory activity according to the method described in J. Boil .Chem., 273, 21145-21152 (1998). Specifically, a plasmid having four tandem binding sequences of Smad3, a TGF-beta signal transducer, to the upstream of a luciferases gene were used as a reporter plasmid ((SBE)4-Luc) to detect TGF-beta signal, This reporter gene was introduced into human pulmonary carcinoma epithelial cells (A549) (available from ATCC) to establish a stable cell line. A test compound and TGFβ-1 (2 ng/ ml) were added to the cells, and the mixture was cultured for 4 hr. In this case, the compounds according to the present invention synthesized in the Examples were used as the test compound. After the culture, the luciferase activity of the cells were measured by chemiluminescence (Steady Glo (trademark) luciferase assay system, available from Promega). Likewise, the luciferase activity was measured as a control against the culture of cells with the addition of TGFβ only and the culture of cells without the addition of both TGFβ and the test compound.
The TGFβ inhibition (%) was calculated by the following equation, based on the measurement results. TGFβ inhibition(%) = (A-B)/(A-C) × 100 [formula] wherein • A: luciferase activity with the addition of TGFβ1 and without the addition of test compound (relative luciferase unit), • B: luciferase activity with the addition of both TGFβ1 and test compound (relative luciferase unit), and • C: luciferase activity without the addition of both TGFβ1 and test compound (relative luciferase unit).
The test was carried out for each of test compound at the concentrations of 3 µM and 10 µM. For certain test compounds, the test was further carried out for test compound at the concentration of 1 µM.
For the compounds of Reference Examples, the TGFβ signal inhibitory activity was evaluated in the same manner as in Test Example 1A.

What is called inhibition is the drop in the measured response relative to a control, in per cent. As for `Cc1cc(Oc2ccnc3cc(C(F)(F)F)ccc23)c(-c2ccccn2)nc1C` [Compound 15, 5,6-Dimethyl-3-(7-trifluoromethyl-quinolin-4-yloxy)-[2,2']bipyridine], the inhibition at 3 µM is 99% and the inhibition at 10 µM was determined as 100%.

As for `COc1ccc2c(Oc3cc(C)c(C)nc3-c3ccccn3)ccnc2c1` [Compound 16, 3-(7-Methoxy-quinolin-4-yloxy)-5,6-dimethyl-[2,2']bipyridine], the inhibition at 1 µM is 97% and the inhibition at 3 µM came out at 100%.

Regarding `Cc1cc(Oc2ccnc3cc(-c4ccccc4)ccc23)c(-c2ccccn2)nc1C` [Compound 17, 5,6-Dimethyl-3-(7-phenyl-quinolin-4-yloxy)-[2,2']bipyridine], the inhibition at 3 µM is 98% and the inhibition at 10 µM came to 100%.

As to `Cc1cc(Oc2ccnc3cc(-c4cccnc4)ccc23)c(-c2ccccn2)nc1C` [Compound 18, 5,6-Dimethyl-3-(7-pyridin-3-yl-quinolin-4-yloxy)-[2,2']bipyridine], the inhibition at 3 µM amounted to 95% and the inhibition at 10 µM was determined as 100%.

As to `Cc1cc(Oc2ccnc3cc(-c4ccncc4)ccc23)c(-c2ccccn2)nc1C` [Compound 19, 5,6-Dimethyl-3-(7-pyridin-4-yl-quinolin-4-yloxy)-[2,2']bipyridine], the inhibition at 3 µM stood at 100% and the inhibition at 10 µM was found to be 100%.

On to `Cc1ccc(-c2ccc3c(Oc4cc(C)c(C)nc4-c4ccccn4)ccnc3c2)cc1` [Compound 20, 5,6-Dimethyl-3-(7-p-tolyl-quinolin-4-yloxy)-[2,2']bipyridine], for which the inhibition at 3 µM was 90% and the inhibition at 10 µM is 100%.

In the case of `Cc1cc(Oc2ccnc3cc(-c4cccc(N)c4)ccc23)c(-c2ccccn2)nc1C` [Compound 21, 3-[4-(5,6-Dimethyl-[2,2']bipyridin-3-yloxy)-quinolin-7-yl]-phenylamine], the inhibition at 3 µM is 99% and the inhibition at 10 µM came to 100%.

In the case of `COc1cc2nccc(Oc3cc(C)c(C)nc3-c3ccccn3)c2cc1C(N)=O` [Compound 22, 4-(5,6-Dimethyl-[2,2']bipyridin-3-yloxy)-7-methoxy-quinoline-6-carboxylic acid amide], the inhibition at 1 µM worked out at 81% and the inhibition at 3 µM is 99%.

`Cc1cc(Oc2ncnc3ccccc23)c(-c2ccccn2)nc1C` [Compound 23, 4-(5,6-Dimethyl-[2,2']bipyridinyl-3-yloxy)-quinazoline]: the inhibition at 3 µM came to 78% and the inhibition at 10 µM amounted to 98%.

As to `Cc1cc(Oc2ncnc3ccc(Cl)cc23)c(-c2ccccn2)nc1C` [Compound 24, 6-Chloro-4-(5,6-dimethyl-[2,2']bipyridin-3-yloxy)-quinazoline], the inhibition at 3 µM was 90% and the inhibition at 10 µM came out at 99%.

With `Cc1cc(Oc2ncnc3ccc(Br)cc23)c(-c2ccccn2)nc1C` [Compound 25, 6-Bromo-4-(5,6-dimethyl-[2,2']bipyridin-3-yloxy)-quinazoline], the inhibition at 3 µM worked out at 89% and the inhibition at 10 µM was 99%.

With `COc1ccc2ncnc(Oc3cc(C)c(C)nc3-c3ccccn3)c2c1` [Compound 26, 4-(5,6-Dimethyl-[2,2']bipyridin-3-yloxy)-6-methoxy-quinazoline], the inhibition at 3 µM stood at 83% and the inhibition at 10 µM is 99%.

As to `COc1cc2ncnc(Oc3cc(C)c(C)nc3-c3ccccn3)c2cc1OC` [Compound 27, 4-(5,6-Dimethyl-[2,2']bipyridin-3-yloxy)-6,7-dimethoxy-quinazoline], the inhibition at 1 µM was found to be 89% and the inhibition at 3 µM turned out to be 100%.

For the molecule `Cc1cc(Oc2ccnc3ccsc23)c(-c2ccccn2)nc1C` [Compound 28, 5,6-Dimethyl-3-(thieno[3,2-b]pyridin-7-yloxy)-[2,2']bipyridine], the inhibition at 1 µM turned out to be 96% and the inhibition at 3 µM turned out to be 100%.

For the molecule `Cc1cc(Oc2ccnc3cc(-c4ccccc4)sc23)c(-c2ccccn2)nc1C` [Compound 29, 5,6-Dimethyl-3-(2-phenyl-thieno[3,2-b]pyridin-7-yloxy)-[2,2']bipyridine], the inhibition at 1 µM came out at 89% and the inhibition at 3 µM was 100%.

As for `Cc1cc(Oc2ccnc3cccnc23)c(-c2ccccn2)nc1C` [Compound 30, 4-(5,6-Dimethyl-[2,2']bipyridin-3-yloxy)-[1,5]naphthyridine], the inhibition at 3 µM stood at 84% and the inhibition at 10 µM came to 99%.

Take `Cc1cc(Oc2ccnc3ccncc23)c(-c2ccccn2)nc1C` [Compound 31, 4-(5,6-Dimethyl-[2,2']bipyridin-3-yloxy)-[1,6]naphthyridine]: the inhibition at 3 µM stood at 85% and the inhibition at 10 µM was found to be 99%.

Regarding `Cc1cc(Oc2ncnc3sccc23)c(-c2ccccn2)nc1C` [Compound 32, 5,6-Dimethyl-3-(thieno[2,3-d]pyrimidin-4-yloxy)-[2,2']bipyridine], the inhibition at 3 µM is 64% and the inhibition at 10 µM amounted to 94%.

As for `Cc1cc(Oc2ncnc3ccsc23)c(-c2ccccn2)nc1C` [Compound 33, 5,6-Dimethyl-3-(thieno[3,2-d]pyrimidin-4-yloxy)-[2,2']bipyridine], the inhibition at 3 µM was 86% and the inhibition at 10 µM is 99%.

Regarding `Cc1cc(Oc2ncnc3scc(C)c23)c(-c2ccccn2)nc1C` [Compound 34, 5,6-Dimethyl-3-(5-methyl-thieno[2,3-d]pyrimidin-4-yloxy)-[2,2'] bipyridine], the inhibition at 3 µM is 94% and the inhibition at 10 µM came to 100%.

Take `Cc1cc(Oc2ncnc3sc(C)c(C)c23)c(-c2ccccn2)nc1C` [Compound 35, 3-(5,6-Dimethyl-thieno[2,3-d]pyrimidin-4-yloxy)-5,6-dimethyl-[2,2']bipyridine]: the inhibition at 3 µM was 95% and the inhibition at 10 µM came to 100%.

Turning to `CCc1ccc(Oc2ccnc3cc(OC)c(OC)cc23)c(-c2ccccn2)n1` [Compound 37, 3-(6,7-Dimethoxy-quinolin-4-yloxy)-6-ethyl-[2,2']bipyridine], the inhibition at 1 µM is 98% and the inhibition at 3 µM amounted to 100%.

As to `Cc1ccc(-c2nc(C)c(C)cc2Oc2ncnc3ccccc23)nc1` [Compound 38, 4-(5,6,5'-Trimethyl-[2,2']bipyridin-3-yloxy)-quinazoline], the inhibition at 3 µM was found to be 45% and the inhibition at 10 µM was 89%.

`COc1ccc2ncnc(Oc3cc(C)c(C)nc3-c3ccc(C)cn3)c2c1` [Compound 39, 6-Methoxy-4-(5,6,5'-trimethyl-[2,2']bipyridin-3-yloxy)-quinazoline]: the inhibition at 3 µM is 88% and the inhibition at 10 µM stood at 99%.

As for `COc1cc2ncnc(Oc3cc(C)c(C)nc3-c3cccc(C)n3)c2cc1OC` [Compound 41, 6,7-Dimethoxy-4-(5,6,6'-trimethyl-[2,2']bipyridin-3-yloxy)-quinazoline], the inhibition at 3 µM worked out at 66% and the inhibition at 10 µM is 98%.

`Cc1cc(Oc2ccnc3ccccc23)c(-c2cccnc2)nc1C` [Compound 43, 5,6-Dimethyl-3-(quinolin-4-yloxy)-[2,3']bipyridine]: the inhibition at 1 µM is 45% and the inhibition at 3 µM worked out at 84%.

`COc1cc2nccc(Oc3cc(C)c(C)nc3-c3cccnc3C)c2cc1OC` [Compound 44, 3-(6,7-Dimethoxy-quinolin-4-yloxy)-5,6,2'-trimethyl-[2,3']bipyridine]: the inhibition at 3 µM turned out to be 82% and the inhibition at 10 µM amounted to 99%.

For `COc1cncc(-c2nc(C)c(C)cc2Oc2ccnc3cc(OC)c(OC)cc23)c1` [Compound 45, 3-(6,7-Dimethoxy-quinolin-4-yloxy)-5'-methoxy-5,6-dimethyl-[2,3']bipyridine], the inhibition at 3 µM worked out at 89% and the inhibition at 10 µM was determined as 100%.

Turning to `CCc1ccc(Oc2ccnc3cc(OC)c(OC)cc23)c(-c2cccnc2)n1` [Compound 46, 3-(6,7-Dimethoxy-quinolin-4-yloxy)-6-ethyl-[2,3']bipyridine], the inhibition at 3 µM is 100% and the inhibition at 10 µM amounted to 100%.

Take `COc1cc2ncnc(Oc3cc(C)c(C)nc3-c3cccnc3)c2cc1OC` [Compound 48, 4-(5,6-Dimethyl-[2,3']bipyridinyl-3-yloxy)-6,7-dimethoxy-quinazoline]: the inhibition at 1 µM came out at 28% and the inhibition at 3 µM is 64%.

Turning to `Cc1cc(Oc2ccnc3ccccc23)c(-c2ncccn2)nc1C` [Compound 49, 4-(5,6-Dimethyl-2-pyrimidin-2-yl-pyridin-3-yloxy)-quinoline], the inhibition at 3 µM was 97% and the inhibition at 10 µM came out at 100%.

For the molecule `COc1cc2ncnc(Oc3cc(C)c(C)nc3-c3ncccn3)c2cc1OC` [Compound 51, 4-(5,6-Dimethyl-2-pyrimidin-2-yl-pyridin-3-yloxy)-6,7-dimethoxy-quinazoline], the inhibition at 3 µM amounted to 93% and the inhibition at 10 µM is 100%.
